# Literature values in patent US20230174656A1, “T[…] REMDESIVIR COMBINATION THERAPY FOR COVID-19 PNEUMONIA” (priority 2020, published 2023).
# Where two headings read alike, the source gives them in different places.
# Legend:
# COVID-19 pneumonia = conditions: cited from earlier work
# [1] = system: CAR T cell-induced severe or life-threatening CRS; conditions: cited from earlier work
# [2] = cited from earlier work; for geometric mean maximum concentration of TCZ: patients with CAR T cell induced CRS, % CV in brackets
substance,measurement,setting,value
TCZ: recombinant humanized monoclonal IgG1κ antibody that binds to human interleukin-6 receptor (IL-6R); light and heavy chains SEQ ID NOs. 1 and 2,patients in whom percentage of lymphocytes in peripheral blood returned to normal,"COVID-19 pneumonia; 10/19, fifth day after treatment",52.6%
same,patients who had lowered their oxygen intake,COVID-19 pneumonia; 15 of 20 patients,75.0%
same,patients in whom abnormally elevated CRP decreased significantly,COVID-19 pneumonia; 16/19,84.2%
same,adverse drug reactions and subsequent pulmonary infections,COVID-19 pneumonia; 21 treated patients,No adverse drug reactions and no subsequent pulmonary infections were reported
same,deaths,COVID-19 pneumonia; 21 treated patients,no deaths among the 21 treated patients
same,fever after TCZ treatment,COVID-19 pneumonia; TCZ IV 400 mg plus standard of care,fever returned to normal
same,patients needing no oxygen therapy,COVID-19 pneumonia; after TCZ treatment,one patient needed no oxygen therapy
same,patients with significant remission of opacities in both lungs on CT scans,COVID-19 pneumonia; after treatment,90.5%
same,patients discharged at the time of the report,"COVID-19 pneumonia; nineteen patients, including two critical patients",90.5%
same,patients achieving a response (afebrile and off vasopressors for at least 24 hours) within 14 days of the first dose of TCZ,"[1]; CTL019 series, 45 patients, maximum up to two doses",69%
same,median time from the first dose to response,[1]; CTL019 series,4 days
same,patients achieving a response,"[1]; axicabtagene ciloleucel series, 15 patients",53%
same,median time to response,[1]; axicabtagene ciloleucel series,4.5 days
same,adverse reactions attributable to TCZ,[1]; patients with CRS after CAR T-cell therapy,no reports of adverse reactions attributable to TCZ
same,geometric mean maximum concentration of TCZ,[2]; after the first infusion,99.5 µg/mL
same,geometric mean maximum concentration of TCZ,[2]; after the second infusion,160.7 µg/mL
same,clearance of TCZ (PK modeling analysis),[2]; patients with CRS versus healthy volunteers and other patient populations,faster clearance of TCZ than healthy volunteers and other patient populations
